Like-named read-outs stand apart in the source and are kept apart here.
Tests used:
human recombinant NET = target: T1, human recombinant NET (Homo sapiens, UniProt P23975); test: NET radioligand binding assay (scintillation proximity, [3H]nisoxetine); details: HEK293 cell membranes expressing human recombinant NET; [3H]nisoxetine; SPA; read-out: NET Ki
T1 construct: membranes)
Method: (§1) Affinity of the compounds for monoamine transporters was determined by in vitro radioligand binding assays using cell membrane preparations derived from HEK293 cell lines stably expressing human recombinant DAT, NET or SERT receptor (Suven Life Sciences, Hyderabad, India).
(§2) Stable DAT cell lines were generated following procedures described in Eshelman et al., Molecular Pharmacology 45, 312-316; 1994. Stable NET cell lines were generated following procedures described in Pacholczyk et al., Nature 350, 350-354, 1991 and Galli et al., Journal Exp. Biol. 198, 2197-2212, 1995. Stable SERT cell lines were generated following procedures described in Ramamoorthy et al., Proc Natl Acad Sci USA 90, 2542-246, 1993.
(§3) Cell membranes were obtained from the above-referenced cell lines by manually homogenizing previously frozen cell pellets in Tris-HCl buffer and serially centrifugating and re-extracting the preparations according procedures described in Subbu et al., Journal Pharmacol ExpTher 327, 982-990, 2008.
(§4) A scintillation proximity assay was used to measure receptor binding. Homogenized membrane preparations (final protein concentration 8-15 ug/well) were pre-incubated with WGA PVT SPA beads (0.5 mg/well) for 5 minutes. Binding was initiated by adding high affinity ligands and test compounds (0.1 nM to 10 μM) or reference/positive control ligands to the membrane-bead complex. Plates were incubated for three hours and raw data counts recorded using a liquid scintillation counter (MicroBetaTriLux Counter, Perkin Elmer). Inhibition constants (Ki) were calculated using GraphPad Prism software (version 4.0).
NET receptor binding was determined using procedures described in Mason et al., The Journal of Pharmacology and Experimental Therapeutics 323:720-729, 2007; and Eshleman et al., The Journal of Pharmacology and Experimental Therapeutics289:877-885, 1999. A mixture of [3H]nisoxetine hydrochloride (N-methyl-[3H]nisoxetine, Perkin Elmer) and bead-membrane complex was added to wells containing test compound. Wells containing unlabeled nisoxetine (100 uM, Sigma) were used to define non-specific NET binding. Total radioligand was defined using assay buffer containing 1% DMSO in the presence of [3H]nisoxetine. NET Ki values were calculated using GraphPad Prism software (version 4.0).

human recombinant DAT = human recombinant DAT (Homo sapiens, UniProt Q01959); test: DAT radioligand binding assay (scintillation proximity, [3H]WIN-35428)
Chain of human recombinant DAT (Q01959 whole entry): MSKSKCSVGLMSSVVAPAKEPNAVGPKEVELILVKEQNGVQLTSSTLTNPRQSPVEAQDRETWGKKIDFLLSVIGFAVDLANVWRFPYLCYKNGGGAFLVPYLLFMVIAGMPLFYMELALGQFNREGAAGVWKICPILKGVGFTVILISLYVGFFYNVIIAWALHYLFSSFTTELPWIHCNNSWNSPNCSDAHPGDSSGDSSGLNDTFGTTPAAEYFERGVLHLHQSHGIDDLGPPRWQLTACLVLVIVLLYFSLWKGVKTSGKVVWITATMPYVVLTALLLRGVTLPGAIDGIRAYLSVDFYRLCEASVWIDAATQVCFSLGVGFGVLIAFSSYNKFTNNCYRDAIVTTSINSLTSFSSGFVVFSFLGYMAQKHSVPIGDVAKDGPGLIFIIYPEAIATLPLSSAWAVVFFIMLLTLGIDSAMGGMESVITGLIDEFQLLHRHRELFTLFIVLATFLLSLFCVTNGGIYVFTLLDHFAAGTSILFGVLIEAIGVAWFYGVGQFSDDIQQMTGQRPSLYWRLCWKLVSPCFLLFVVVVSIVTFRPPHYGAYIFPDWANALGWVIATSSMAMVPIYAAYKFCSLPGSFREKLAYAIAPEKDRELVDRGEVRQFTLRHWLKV
Method: as §1, §2, §3, §4
DAT receptor binding was determined using procedures described in Skolnick et al., European Journal of Pharmacology, 461(2-3):99-104, 2003; and Eshleman et al., The Journal of Pharmacology and Experimental Therapeutics 289:877-885, 1999. A mixture of [3H]WIN-35428 (N-methyl 3H-WIN-35428, Perkin Elmer) and bead-membrane complex was added to wells containing test compound. Wells containing nomifensine maleate ([…], Sigma) were used to define non-specific […] binding. Total radioligand was defined by assay buffer containing 1% DMSO in the presence of [3H]WIN-35428. DAT Ki values were calculated using GraphPad Prism software (version 4.0).

human recombinant SERT = target: T2, human recombinant SERT (Homo sapiens, UniProt P31645); test: SERT radioligand binding assay (scintillation proximity, [3H]citalopram); details: HEK293 cell membranes expressing human recombinant SERT; [3H]citalopram; SPA; read-out: SERT Ki
T2 construct: membranes)
T2 sequence (P31645 whole entry): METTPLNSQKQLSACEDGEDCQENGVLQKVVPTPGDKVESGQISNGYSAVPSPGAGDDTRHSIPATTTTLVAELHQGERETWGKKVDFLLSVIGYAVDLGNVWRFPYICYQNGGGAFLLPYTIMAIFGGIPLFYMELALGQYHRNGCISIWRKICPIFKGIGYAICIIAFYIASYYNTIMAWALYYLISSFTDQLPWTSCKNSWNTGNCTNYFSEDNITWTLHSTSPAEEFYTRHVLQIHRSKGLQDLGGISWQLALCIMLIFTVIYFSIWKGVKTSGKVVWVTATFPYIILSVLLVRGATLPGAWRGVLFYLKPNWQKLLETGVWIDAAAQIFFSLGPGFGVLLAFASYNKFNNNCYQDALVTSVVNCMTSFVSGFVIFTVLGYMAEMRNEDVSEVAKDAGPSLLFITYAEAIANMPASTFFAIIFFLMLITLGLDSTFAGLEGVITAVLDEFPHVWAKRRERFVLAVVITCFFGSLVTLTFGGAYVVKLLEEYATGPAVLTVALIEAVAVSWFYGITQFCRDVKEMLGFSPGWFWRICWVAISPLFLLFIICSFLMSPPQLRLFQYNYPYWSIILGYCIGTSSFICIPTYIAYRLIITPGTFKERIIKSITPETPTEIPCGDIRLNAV
Method: as §1, §2, §3, §4
SERT receptor binding was determined using procedures described in Owens et al., The Journal of Pharmacology and Experimental Therapeutics 283:1305-1322, 1997. A mixture of [3H]citalopram (N-methyl-[3H]citalopram, Perkin Elmer) and bead-membrane complex was added to wells containing test compound. Non-specific binding was determined using wells containing venlafaxine hydrochloride (100 uM, Sigma). Total radioligand was determined using assay buffer containing 1% DMSO in the presence of [3H]citalopram. SERT Ki values were calculated using GraphPad Prism software (version 4.0).

T1 sequence (P23975 whole entry): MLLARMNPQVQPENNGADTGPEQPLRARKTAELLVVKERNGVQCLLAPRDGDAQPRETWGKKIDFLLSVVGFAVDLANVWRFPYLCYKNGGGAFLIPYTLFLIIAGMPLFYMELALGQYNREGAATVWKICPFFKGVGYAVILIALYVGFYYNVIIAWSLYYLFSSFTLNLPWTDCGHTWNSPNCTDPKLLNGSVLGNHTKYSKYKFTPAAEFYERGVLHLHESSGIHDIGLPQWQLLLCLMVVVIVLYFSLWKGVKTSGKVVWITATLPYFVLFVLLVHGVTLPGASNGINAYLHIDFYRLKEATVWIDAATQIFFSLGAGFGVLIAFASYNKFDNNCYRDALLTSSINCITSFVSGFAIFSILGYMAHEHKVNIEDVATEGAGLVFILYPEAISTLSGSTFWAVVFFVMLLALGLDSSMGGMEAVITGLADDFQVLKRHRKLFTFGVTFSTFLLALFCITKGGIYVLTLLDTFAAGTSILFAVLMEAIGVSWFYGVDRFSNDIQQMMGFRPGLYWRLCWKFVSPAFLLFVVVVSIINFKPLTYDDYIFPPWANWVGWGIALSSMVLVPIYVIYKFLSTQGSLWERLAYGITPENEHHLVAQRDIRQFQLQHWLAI

| Compound | Ki (human recombinant NET) [nM] | Ki (human recombinant DAT; HEK293 cell membranes expressing human recombinant DAT, [3H]WIN-35428, SPA, read-out: DAT Ki) [nM] | Ki (human recombinant SERT) [nM] | Ki (human recombinant DAT) [nM] |
| --- | --- | --- | --- | --- |
| 1-{2-[1-(3-Chlorophenyl)cyclobutyl]-2-hydroxyethyl}-3,3-dimethylpiperidin-1-ium chloride [Compound 11] | > 500 | > 500 | > 500 | – |
| Clc1ccc(C2(CN3CCCCC3)CCC2)cc1 [Compound 1] | > 500 | – | > 500 | 101 to 500 |
| Clc1cccc(C2(CN3CCCCC3)CCC2)c1 [Compound 2] | > 500 | – | > 500 | > 500 |
| Clc1ccc(C2(CN3CCCCC3)CCC2)cc1Cl [Compound 3] | 11 to 100 | – | 101 to 500 | 11 to 100 |
| c1ccc(C2(CN3CCCCC3)CCC2)cc1 [Compound 4, 1-[(1-phenylcyclobutyl)methyl]piperidin-1-ium chloride] | > 500 | – | > 500 | > 500 |
| OC(CN1CCCCC1)C1(c2ccccc2)CCC1 (stereo not drawn) [Compound 5, 1-[2-hydroxy-2-(1-phenylcyclobutyl)ethyl]piperidin-1-ium chloride] | > 500 | – | > 500 | > 500 |
| OC(CN1CCCCC1)C1(c2ccc(Cl)cc2)CCC1 (stereo not drawn) [Compound 6, 1-{2-[1-(4-Chlorophenyl)cyclobutyl]-2-hydroxyethyl}piperidin-1-ium chloride] | > 500 | – | > 500 | > 500 |
| OC(CN1CCCCC1)C1(c2ccc(Cl)c(Cl)c2)CCC1 (stereo not drawn) [Compound 7, 1-{2-[1-(3,4-Dichlorophenyl)cyclobutyl]-2-hydroxyethyl}piperidin-1-ium chloride] | 101 to 500 | – | > 500 | 11 to 100 |
| OC(CN1CCCCC1)C1(c2cccc(Cl)c2)CCC1 (stereo not drawn) [Compound 12, 1-{2-[1-(3-Chlorophenyl)cyclobutyl]-2-hydroxyethyl}piperidin-1-ium chloride] | > 500 | – | > 500 | > 500 |
| O[C@H](CN1CCCCC1)C1(c2ccc(Cl)c(Cl)c2)CCC1 [Compound 13, 1-[(2S)-2-[1-(3,4-dichlorophenyl)cyclobutyl]-2-hydroxyethyl]piperidin-1-ium chloride] | 11 to 100 | – | > 500 | 11 to 100 |
| O[C@@H](CN1CCCCC1)C1(c2ccc(Cl)c(Cl)c2)CCC1 [Compound 14, 1-[(2R)-2-[1-(3,4-dichlorophenyl)cyclobutyl]-2-hydroxyethyl]piperidin-1-ium chloride] | 101 to 500 | – | > 500 | 11 to 100 |
| OC(CN1CCCCC1)C1(c2ccc3ccccc3c2)CCC1 (stereo not drawn) [Compound 15, 1-{2-hydroxy-2-[1-(naphthalen-2-yl)cyclobutyl]ethyl}piperidin-1-ium chloride] | 11 to 100 | – | 101 to 500 | 11 to 100 |
| OC(CN1CCCCCC1)C1(c2ccc(Cl)c(Cl)c2)CCC1 (stereo not drawn) [Compound 16, 1-{2-[1-(3,4-Dichlorophenyl)cyclobutyl]-2-hydroxyethyl}azepan-1-ium chloride] | 101 to 500 | – | > 500 | 11 to 100 |
| OC(CN1CCCC1)C1(c2ccc(Cl)c(Cl)c2)CCC1 (stereo not drawn) [Compound 17, 1-{2-[1-(3,4-Dichlorophenyl)cyclobutyl]-2-hydroxyethyl}pyrrolidin-1-ium chloride] | 101 to 500 | – | > 500 | 11 to 100 |
| CCN(CC)CC(O)C1(c2ccc(Cl)c(Cl)c2)CCC1 (stereo not drawn) [Compound 18, {2-[1-(3,4-Dichlorophenyl)cyclobutyl]-2-hydroxyethyl}diethylazanium chloride] | 11 to 100 | – | > 500 | 11 to 100 |
| CC(C)NCC(O)C1(c2ccc(Cl)c(Cl)c2)CCC1 (stereo not drawn) [Compound 19, {2-[1-(3,4-dichlorophenyl)cyclobutyl]-2-hydroxyethyl}(propan-2-yl)azanium chloride] | 11 to 100 | – | 101 to 500 | 11 to 100 |
| CC(C)(C)NCC(O)C1(c2ccc(Cl)c(Cl)c2)CCC1 (stereo not drawn) [Compound 20, tert-butyl({2-[1-(3,4-dichlorophenyl)cyclobutyl]-2-hydroxyethyl})azanium chloride] | 11 to 100 | – | 101 to 500 | 11 to 100 |
| OC(CN1CCCC(F)C1)C1(c2ccc(Cl)c(Cl)c2)CCC1 (stereo not drawn) [Compound 21, 1-{2-[1-(3,4-Dichlorophenyl)cyclobutyl]-2-hydroxyethyl}-3-fluoropiperidin-1-ium chloride] | 11 to 100 | – | > 500 | < 10 |
| OC(CN1CCCC(F)(F)C1)C1(c2ccc(Cl)c(Cl)c2)CCC1 (stereo not drawn) [Compound 22, 1-{2-[1-(3,4-Dichlorophenyl)cyclobutyl]-2-hydroxyethyl}-3,3-difluoropiperidin-1-ium chloride] | 101 to 500 | – | > 500 | < 10 |
| OC(CN1CCC(F)CC1)C1(c2ccc(Cl)c(Cl)c2)CCC1 (stereo not drawn) [Compound 23, 1-{2-[1-(3,4-Dichlorophenyl)cyclobutyl]-2-hydroxyethyl}-4-fluoropiperidin-1-ium chloride] | 101 to 500 | – | > 500 | < 10 |
| OC(CN1CCC(F)(F)CC1)C1(c2ccc(Cl)c(Cl)c2)CCC1 (stereo not drawn) [Compound 24, 1-{2-[1-(3,4-Dichlorophenyl)cyclobutyl]-2-hydroxyethyl}-4,4-difluoropiperidin-1-ium chloride] | > 500 | – | 101 to 500 | < 10 |
| OC(CN1CC2CCC1C2)C1(c2ccc(Cl)c(Cl)c2)CCC1 (stereo not drawn) [Compound 25, 2-{2-[1-(3,4-Dichlorophenyl)cyclobutyl]-2-hydroxyethyl}-2-azabicyclo[2.2.1]heptan-2-ium chloride] | 11 to 100 | – | 101 to 500 | 11 to 100 |
| OC(CN1CC2CC1CO2)C1(c2ccc(Cl)c(Cl)c2)CCC1 (stereo not drawn) [Compound 27, 5-{2-[1-(3,4-Dichlorophenyl)cyclobutyl]-2-hydroxyethyl}-2-oxa-5-azabicyclo[2.2.1]heptan-5-ium chloride] | 101 to 500 | – | > 500 | 11 to 100 |
| CC(CF)NCC(O)C1(c2ccc(Cl)c(Cl)c2)CCC1 (stereo not drawn) [Compound 29, {2-[1-(3,4-dichlorophenyl)cyclobutyl]-2-hydroxyethyl}(1-fluoropropan-2-yl)azanium chloride] | 101 to 500 | – | > 500 | 11 to 100 |
| OC(CN1CCOCC1)C1(c2ccc(Cl)c(Cl)c2)CCC1 (stereo not drawn) [Compound 30, 4-{2-[1-(3,4-Dichlorophenyl)cyclobutyl]-2-hydroxyethyl}morpholin-4-ium chloride] | > 500 | – | > 500 | 11 to 100 |
| CC1(C)COCCN1CC(O)C1(c2ccc(Cl)c(Cl)c2)CCC1 (stereo not drawn) [Compound 31, 4-{2-[1-(3,4-dichlorophenyl)cyclobutyl]-2-hydroxyethyl}-3,3-dimethylmorpholin-4-ium chloride] | 11 to 100 | – | 11 to 100 | < 10 |
| N#CC1CCCN(CC(O)C2(c3ccc(Cl)c(Cl)c3)CCC2)C1 (stereo not drawn) [Compound 32, 1-{2-[1-(3,4-dichlorophenyl)cyclobutyl]-2-hydroxyethyl}piperidine-3-carbonitrile] | 101 to 500 | – | 11 to 100 | < 10 |
| COC1CCCN(CC(O)C2(c3ccc(Cl)c(Cl)c3)CCC2)C1 (stereo not drawn) [Compound 33, 1-{2-[1-(3,4-Dichlorophenyl)cyclobutyl]-2-hydroxyethyl}-3-methoxypiperidin-1-ium chloride] | 101 to 500 | – | > 500 | < 10 |
| CC1(NCC(O)C2(c3ccc(Cl)c(Cl)c3)CCC2)CC1 (stereo not drawn) [Compound 34, N-{2-[1-(3,4-Dichlorophenyl)cyclobutyl]-2-hydroxyethyl}-1-methylcyclopropan-1-aminium chloride] | 11 to 100 | – | 101 to 500 | 11 to 100 |

From patent publication US20150057443A1, “Cycloalkyl Amine Compounds” (Prexa Pharmaceuticals, Inc., priority 2013, published 2015)
